From US10864211B2, “Hydroxy isoxazole compounds useful as GPR120 agonists” (Merck Sharp & Dohme Corp., priority 2016, dated 2020)
Counter-ions that a name gives are not always drawn.

Target: T1, rat GPR120 (Rattus norvegicus, UniProt Q2AC31)
T1 construct: expressed in transfected cells; host or cells: HEK293
T1 sequence (Q2AC31 1-361): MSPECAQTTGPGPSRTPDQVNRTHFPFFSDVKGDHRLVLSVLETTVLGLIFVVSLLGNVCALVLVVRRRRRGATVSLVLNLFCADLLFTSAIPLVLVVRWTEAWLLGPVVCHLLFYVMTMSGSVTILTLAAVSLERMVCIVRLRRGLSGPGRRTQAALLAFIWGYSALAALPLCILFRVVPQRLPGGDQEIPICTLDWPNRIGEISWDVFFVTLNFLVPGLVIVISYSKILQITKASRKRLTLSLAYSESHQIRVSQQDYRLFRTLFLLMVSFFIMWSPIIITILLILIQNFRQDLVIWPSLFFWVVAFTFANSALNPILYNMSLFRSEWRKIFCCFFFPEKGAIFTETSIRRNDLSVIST
Assay: Rat GPR120 IP1 assay (inositol phosphate turnover)
Format: cell-based
Details: IP1 accumulation in HEK293 cells stably expressing rat GPR120
Source text: The binding of small molecule agonists to the G-protein-coupled receptor GPR120 activates phospholipase C, and leads to the generation of inositol 1,4,5-trisphosphate (InsP3 or IP3). IP3 is subsequently de-phosphorylated to IP1, which accumulates in cells and is stable in the presence of lithium chloride.
In the present method, agonist-induced activation of the human and rat GPR120 receptor was monitored by measuring the accumulation of IP1 in CHO-K1 cells that were stably expressing the short form of human GPR120 (Accession #NM_001195755) or HEK293 cells stably expressing rat GPR120 (Accession #NM_001047088). Following agonist addition, GPR120 activation and subsequent accumulation of IP1 was measured using a homogeneous Time Resolved Fluorescence-based ELISA commercially available from CisBio (IP-one ELISA Kit). The IP-One ELISA was a competitive immunoassay which uses IP1 labeled with […] and a terbium cryptate-labeled anti-IP1 monoclonal antibody. […] The signal loss was then back calculated to IP1 concentration using an IP1 standard curve. Determination of IP1 concentration was a direct measure of GPR120 activation and was used to determine compound potency (EC50).
Human GPR120 stable cell-lines were generated in CHO cells. The expression plasmids were transfected using lipofectamine (Life Technologies) following manufacturer's instructions. Stable cell-lines were generated following drug selection and single cell cloning. Rat GPR120 stable cell-lines were generated in HEK cells using the Jump-In™ cell engineering platform (Life Technologies) following manufacturer's instructions. Stable cell-lines were generated following drug selection and single cell cloning.
The assay was performed in 384-well format. CHO cells stably expressing human GPR120 were plated at 20,000 cells per well in growth medium (DMEM/F12, 10% fetal calf serum). HEK293 cells stably expressing rat GPR120 were plated at […] per well in growth medium (DMEM, 10% fetal calf serum). Cell plates were then incubated 16 hours at 37 degrees in a 5% CO2 incubator. Measurement of Inositol Phosphate Turnover (IP1) was performed using the CisBio IP-One kit (Part number 62IPAPEB). After the 16 hour incubation, the growth media was removed by centrifugation using the BlueWasher (AusWasher GUI Ver. v1.0.1.8) Protocol #21-“Light Dry” and 10 μl of stimulation buffer (prepared as described in the kit) was added to each well. In a separate plate, compounds were diluted in DMSO (200-fold over the final concentration in the assay well) and 50 nl was acoustically transferred to the appropriate well in the assay cell plate. The plates were then incubated for 60 minutes at 37 degrees in a 5% CO2 incubator. 10 μl of detection buffer (also prepared as described in the IP-One kit) was added to each well and the plates were incubated at room temperature for 60 minutes in the dark. The plates were then read in a Perkin ElmerEnVision or equivalent reader able to measure FRET. Fluorescent ratio of emission at 665 and 620 nm was then converted to the IP1 concentration by back calculating from an IP1 standard curve prepared at the time of the assay. The data was normalized to % activity using a reference compound, and the EC50 values were determined using a standard 4-parameter fit.

Row | SMILES | EC50 [nM]
1 | Oc1cc(-c2cnc(O[C@H]3C[C@](F)(c4ccnc(OC5CC5)c4)C3)cn2)on1 [Example 91, ammonium 5-[5-({cis-3-[2-(cyclopropyloxy)pyridin-4-yl]-3-fluoro-cyclobutyl}oxy)pyrazin-2-yl]isoxazol-3-olate] | 36
2 | Oc1cc(-c2ccc(O[C@H]3C[C@](F)(c4ccnc(OC5CCC5)c4)C3)nc2)on1 [Example 87, sodium 5-[6-({cis-3-[2-(cyclobutyloxy)pyridin-4-yl]-3-fluorocyclobutyl}oxy)pyridin-3-yl]isoxazol-3-olate] | 4.7
3 | Oc1cc(-c2cnc(O[C@H]3C[C@@](F)(c4nc(C(F)(F)F)cs4)C3)cn2)on1 [Example 102, ammonium 5-[5-({trans-3-fluoro-3-[4-(trifluoromethyl)-1,3-thiazol-2-yl]cyclobutyl}oxy)pyrazin-2-yl]isoxazol-3-olate] | 1160
4 | CCOc1cc([C@]2(F)C[C@@H](Oc3cnc(-c4cc(O)no4)cn3)C2)ccn1 [Example 94, 5-(5-{[cis-3-(2-ethoxypyridin-4-yl)-3-fluorocyclobutyl]oxy}pyrazin-2-yl)isoxazol-3-ol] | 890
5 | Oc1cc(-c2cnc(O[C@H]3C[C@](F)(c4ccnc(OC5CCC5)c4)C3)cn2)on1 [Example 96, sodium 5-[5-({cis-3-[2-(cyclobutyloxy)pyridin-4-yl]-3-fluorocyclobutyl}oxy)pyrazin-2-yl]isoxazol-3-olate] | 33
6 | Oc1cc(-c2cnc(O[C@H]3C[C@@](F)(c4ccnc(OC5CCC5)c4)C3)cn2)on1 [Example 95, 5-[5-({trans-3-[2-(cyclobutyloxy)pyridin-4-yl]-3-fluorocyclobutyl}oxy)pyrazin-2-yl]isoxazol-3-ol] | 18
7 | Oc1cc(-c2ccc(O[C@H]3C[C@@](F)(c4ccnc(OC5CCC5)c4)C3)nc2)on1 [Example 88, 2-(cyclobutyloxy)-4-(trans-1-fluoro-3-{[5-(3-hydroxyisoxazol-5-yl)pyridinium-2-yl]oxy}cyclobutyl)pyridinium bis(trifluoroacetate)] | 42.2

Further lines, results first:

Row | EC50 [nM] | SMILES
8 | 5.8 | Oc1cc(-c2cnc(O[C@H]3C[C@H](c4ccc(Cl)cc4)C3)nc2)on1 [Example 115, 5-(2-{[trans-3-(4-chlorophenyl)cyclobutyl]oxy}pyrimidin-5-yl)isoxazol-3-ol]
9 | 0.8 | Oc1cc(-c2ccc(O[C@H]3C[C@@H](c4ccc(Cl)cc4)C3)cn2)on1 [Example 111, 5-{[cis-3-(4-chlorophenyl)cyclobutyl]oxy}-2-(3-hydroxyisoxazol-5-yl)pyridinium trifluoroacetate]
10 | 100 | Oc1cc(-c2ccc(O[C@H]3C[C@H](c4ccc(C(F)(F)F)cn4)C3)nc2)on1 [Example 23, 5-[6-({trans-3-[5-(trifluoromethyl)pyridin-2-yl]cyclobutyl}oxy)pyridin-3-yl]isoxazol-3-ol]
11 | 1.1 | Oc1cc(-c2ccc(O[C@H]3C[C@H](c4ccc(Cl)cc4)C3)cn2)on1 [Example 110, 5-{[trans-3-(4-chlorophenyl)cyclobutyl]oxy}-2-(3-hydroxyisoxazol-5-yl)pyridinium trifluoroacetate]
12 | 1.8 | Oc1cc(-c2cnc(O[C@H]3C[C@H](Oc4cccc(OC(F)(F)F)c4)C3)cn2)on1 [Example 61, sodium 5-[5-({trans-3-[3-(trifluoromethoxy)phenoxy]-cyclobutyl}oxy)pyrazin-2-yl]isoxazol-3-olate]
